Data published in patent US10294202B2, “Pyrrolidinones as herbicides” (FMC Corporation, priority 2013, dated 2019).

What was measured:
velvetleaf = test: Test C pre-/postemergence herbicide test; assay type: in vivo, Abutilon theophrasti; settings: for Velvetleaf plant response rating: scale 0 to 100, 0 is no effect and 100 is complete control; for Plant response rating (scale of 0 to 100), Velvetleaf: 250 g ai/ha
Summary of the method: (§1)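 Test compounds, formulated in a surfactant-containing non-phytotoxic solvent blend, are applied to seeded loam/sand soil (preemergence) and to young plants at the 1- to 4-leaf stage in peat-based medium (postemergence). Plants stay 13 to 15 days under greenhouse conditions, then are scored visually relative to controls, 0 = no effect, 100 = complete control.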

ryegrass, Italian = test: Test C pre-/postemergence herbicide test; assay type: in vivo, Lolium multiflorum; settings: for Ryegrass, Italian plant response rating: scale 0 to 100, 0 is no effect and 100 is complete control; for Plant response rating (scale of 0 to 100), Ryegrass, Italian: 250 g ai/ha
Summary of the method: as §1

corn = test: Test C pre-/postemergence herbicide test; assay type: in vivo, Zea mays; settings: for Plant response rating (scale of 0 to 100), Corn: 250 g ai/ha
Summary of the method: as §1

galium = test: Test C pre-/postemergence herbicide test; assay type: in vivo, Galium aparine; settings: Preemergence; for Plant response rating (scale of 0 to 100), Galium: 250 g ai/ha; for Galium plant response rating: 31 g ai/ha
Summary of the method: as §1

barnyardgrass = test: Test C pre-/postemergence herbicide test; assay type: in vivo, Echinochloa crus-galli; settings: Preemergence
Excerpt: Seeds of plant species selected from blackgrass (Alopecurus myosuroides), ryegrass, Italian (Italian ryegrass, Lolium multiflorum), wheat (winter wheat, Triticum aestivum), galium (catchweed bedstraw, Galium aparine), corn (Zea mays), crabgrass, large (large crabgrass, Digitaria sanguinalis), foxtail, giant (giant foxtail, Setaria faberii), johnsongrass (Sorghum halepense), lambsquarters (Chenopodium album), morningglory (Ipomoea coccinea), nutsedge, yellow (yellow nutsedge, Cyperus esculentus), pigweed (Amaranthus retroflexus), ragweed (common ragweed, Ambrosia elatior), soybean (Glycine max), barnyardgrass (Echinochloa crus-galli), oilseed rape (Brassica napus), waterhemp (common waterhemp, Amaranthus rudis), kochia (Kochia scoparia), oat, wild (wild oat, Avena fatua), surinam grass (Brachiaria decumbens), foxtail, green (green foxtail, Setaria viridis), goosegrass (Eleusine indica), bromegrass, downy (downy bromegrass, Bromus tectorum), nightshade (eastern black nightshade, Solanum ptycanthum), cocklebur (common cocklebur, Xanthium strumarium), cupgrass, woolly (woolly cupgrass, Eriochloa villosa), bermudagrass (Cynodon dactylon), sunflower, (common oilseed sunflower, Helianthus annuus), Russian thistle (Salsola kali) and velvetleaf (Abutilon theophrasti) were planted into a blend of loam soil and sand and treated preemergence with test chemicals formulated in a non-phytotoxic solvent mixture which included a surfactant. At the same time, plants selected from these crop and weed species and also barley (winter barley, Hordeum vulgare), […]), chickweed (common chickweed, Stellaria media), deadnettle (henbit deadnettle, Lamium amplexicaule), and canarygrass (littleseed canarygrass, Phalaris minor) were planted in pots containing Redi-Earth® planting medium (Scotts Company, 14111 Scottslawn Road, Marysville, Ohio 43041) comprising spaghnum peat moss, vermiculite, wetting agent and starter nutrients and treated with postemergence applications of test chemicals formulated in the same manner. Plants ranged in height from 2 to 18 cm (1- to 4-leaf stage) for postemergence treatments. Treated plants and controls were maintained in a greenhouse for 13 to 15 days, after which time all species were compared to controls and visually evaluated. Plant response ratings, summarized in Table C, are based on a scale of 0 to 100 where 0 is no effect and 100 is complete control. A dash (-) response means no test result.

pigweed = test: Test A pre-/postemergence herbicide test; assay type: in vivo, Amaranthus retroflexus; settings: for Pigweed plant response rating: Preemergence, visual rating on 0 to 100 scale (0 no effect, 100 complete control)
Summary of the method: (§2)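 Planted in loam–sand blend; treated the same day preemergence by directed soil spray, while separately grown plants at one- to two-leaf stage got postemergence spray. Compared visually with untreated controls after approximately 10 days; 100 means complete control.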

wheat = test: Test A pre-/postemergence herbicide test; assay type: in vivo, Triticum aestivum; settings: for Wheat plant response rating: Preemergence, visual rating on 0 to 100 scale (0 no effect, 100 complete control)
Summary of the method: as §2

nutsedge, yellow = test: Test C pre-/postemergence herbicide test; assay type: in vivo, Cyperus esculentus; settings: for Nutsedge, Yellow plant response rating: scale 0 to 100, 0 is no effect and 100 is complete control; for Plant response rating (scale of 0 to 100), Nutsedge, Yellow: 250 g ai/ha
Summary of the method: as §1

blackgrass = test: Test C pre-/postemergence herbicide test; assay type: in vivo, Alopecurus myosuroides; settings: for Plant response rating (scale of 0 to 100), Blackgrass: 250 g ai/ha
Summary of the method: as §1

morningglory = test: Test C pre-/postemergence herbicide test; assay type: in vivo, Ipomoea coccinea; settings: for Morningglory plant response rating: scale 0 to 100, 0 is no effect and 100 is complete control; for Plant response rating (scale of 0 to 100), Morningglory: 250 g ai/ha
Summary of the method: as §1

[1] = Preemergence, 62 g ai/ha, scale 0 to 100
[2] = Preemergence, 125 g ai/ha, scale 0 to 100 (0 no effect, 100 complete control)
[3] = Preemergence, 31 g ai/ha, scale 0 to 100, 0 is no effect and 100 is complete control
[4] = 125 g ai/ha, scale 0 to 100 (0 no effect, 100 complete control)
[5] = Postemergence, 125 g ai/ha, 0 to 100 scale, 0 no effect, 100 complete control
[6] = Postemergence, 500 g ai/ha, 0 to 100 scale (0 no effect, 100 complete control)
[7] = preemergence, 500 g ai/ha, 0 to 100 scale
[8] = Postemergence, 31 g ai/ha, scale 0 (no effect) to 100 (complete control)
[9] = Postemergence, 62 g ai/ha, scale 0 to 100 (0 no effect, 100 complete control)
[10] = Postemergence, 125 g ai/ha, scale 0 to 100 (0 no effect, 100 complete control)
[11] = Preemergence, 31 g ai/ha, scale 0 to 100 (0 no effect, 100 complete control)

## O=C1NCC(c2ccc(F)c(C(F)(F)F)c2)C1C(=O)Nc1cccc(F)c1F (racemic) [Compound 77]
velvetleaf; Preemergence, 31 g ai/ha
  Velvetleaf plant response rating: 0
velvetleaf; [1]
  Plant response rating, Velvetleaf: 25
velvetleaf; [2]
  Plant response rating, Velvetleaf: 30
velvetleaf; Preemergence
  Plant response rating (scale of 0 to 100), Velvetleaf: 40
ryegrass, Italian; Preemergence, 31 g ai/ha
  Ryegrass, Italian plant response rating: 40
ryegrass, Italian; [1]
  Plant response rating, Ryegrass, Italian: 40
ryegrass, Italian; [2]
  Plant response rating, Ryegrass, Italian: 40
ryegrass, Italian; Preemergence
  Plant response rating (scale of 0 to 100), Ryegrass, Italian: 45
corn; [3]
  Corn plant response rating: 0
corn; [1]
  Plant response rating, Corn: 20
corn; [2]
  Plant response rating, Corn: 55
corn; Preemergence
  Plant response rating (scale of 0 to 100), Corn: 70
galium; 62 g ai/ha, scale 0 to 100
  Plant response rating, Galium: 5
galium; [4]
  Plant response rating, Galium: 80
galium
  Plant response rating (scale of 0 to 100), Galium: 90
barnyardgrass; 31 g ai/ha, scale 0 to 100, 0 is no effect and 100 is complete control
  Barnyardgrass plant response rating: 90
barnyardgrass; 62 g ai/ha, scale 0 to 100
  Plant response rating, Barnyardgrass: 95
barnyardgrass; [4]
  Plant response rating, Barnyardgrass: 95
barnyardgrass; 250 g ai/ha
  Plant response rating (scale of 0 to 100; 0 is no effect, 100 is complete control), Barnyardgrass: 95
pigweed; [5]
  Plant response rating, Pigweed: 40
pigweed; [6]
  Plant response rating, Pigweed: 50
pigweed; 125 g ai/ha
  Pigweed plant response rating: 40
pigweed; [7]
  Plant response rating, Pigweed: 70
wheat; [5]
  Plant response rating, Wheat: 50
wheat; [6]
  Plant response rating, Wheat: 60
wheat; 125 g ai/ha
  Wheat plant response rating: 0
wheat; [7]
  Plant response rating, Wheat: 30
nutsedge, yellow; Preemergence, 31 g ai/ha
  Nutsedge, Yellow plant response rating: 0
nutsedge, yellow; [1]
  Plant response rating, Nutsedge, Yellow: 0
nutsedge, yellow; [2]
  Plant response rating, Nutsedge, Yellow: 0
nutsedge, yellow; Preemergence
  Plant response rating (scale of 0 to 100), Nutsedge, Yellow: 0
blackgrass; [3]
  Blackgrass plant response rating: 85
blackgrass; [1]
  Plant response rating, Blackgrass: 85
blackgrass; [2]
  Plant response rating, Blackgrass: 85
blackgrass; Preemergence
  Plant response rating (scale of 0 to 100), Blackgrass: 95
morningglory; Preemergence, 31 g ai/ha
  Morningglory plant response rating: 0
morningglory; [1]
  Plant response rating, Morningglory: 0
morningglory; [2]
  Plant response rating, Morningglory: 0
morningglory; Preemergence
  Plant response rating (scale of 0 to 100), Morningglory: 0

## O=C1NCC(c2ccc(F)c(Cl)c2)C1C(=O)Nc1ccccc1F (centres unmarked) [Compound 60]
velvetleaf; [8]
  Plant response rating, Velvetleaf: 0
velvetleaf; [9]
  Plant response rating, Velvetleaf: 0
velvetleaf; [10]
  Plant response rating, Velvetleaf: 5
velvetleaf; [1]
  Plant response rating, Velvetleaf: 0
velvetleaf; [2]
  Plant response rating, Velvetleaf: 0
ryegrass, Italian; [8]
  Plant response rating, Ryegrass, Italian: 0
ryegrass, Italian; [9]
  Plant response rating, Ryegrass, Italian: 0
ryegrass, Italian; [10]
  Plant response rating, Ryegrass, Italian: 0
ryegrass, Italian; [1]
  Plant response rating, Ryegrass, Italian: 0
ryegrass, Italian; [2]
  Plant response rating, Ryegrass, Italian: 0
corn; [8]
  Plant response rating, Corn: 0
corn; [9]
  Plant response rating, Corn: 0
corn; [10]
  Plant response rating, Corn: 0
corn; [1]
  Plant response rating, Corn: 10
corn; [2]
  Plant response rating, Corn: 20
corn; [11]
  Corn plant response rating: 0
galium; 62 g ai/ha, scale 0 to 100
  Plant response rating, Galium: 0
galium; [4]
  Plant response rating, Galium: 5
galium; scale 0 to 100 (0 no effect, 100 complete control)
  Galium plant response rating: 0
pigweed; [5]
  Plant response rating, Pigweed: 0
pigweed; [6]
  Plant response rating, Pigweed: 0
pigweed; 125 g ai/ha
  Pigweed plant response rating: 0
pigweed; [7]
  Plant response rating, Pigweed: 0
wheat; [5]
  Plant response rating, Wheat: 0
wheat; [6]
  Plant response rating, Wheat: 50
wheat; 125 g ai/ha
  Wheat plant response rating: 0
wheat; [7]
  Plant response rating, Wheat: 0
nutsedge, yellow; [8]
  Plant response rating, Nutsedge, Yellow: 0
nutsedge, yellow; [9]
  Plant response rating, Nutsedge, Yellow: 0
nutsedge, yellow; [10]
  Plant response rating, Nutsedge, Yellow: 5
nutsedge, yellow; [1]
  Plant response rating, Nutsedge, Yellow: 0
nutsedge, yellow; [2]
  Plant response rating, Nutsedge, Yellow: 15
blackgrass; [8]
  Plant response rating, Blackgrass: 0
blackgrass; [9]
  Plant response rating, Blackgrass: 0
blackgrass; [10]
  Plant response rating, Blackgrass: 0
blackgrass; [1]
  Plant response rating, Blackgrass: 10
blackgrass; [2]
  Plant response rating, Blackgrass: 40
blackgrass; [11]
  Blackgrass plant response rating: 0
morningglory; [8]
  Plant response rating, Morningglory: 5
morningglory; [9]
  Plant response rating, Morningglory: 10
morningglory; [10]
  Plant response rating, Morningglory: 10
morningglory; [1]
  Plant response rating, Morningglory: 10
morningglory; [2]
  Plant response rating, Morningglory: 10

## O=C1NCC(c2cccc(OC(F)(F)F)c2)C1C(=O)Nc1ccccc1F (centres unmarked) [Compound 69]
velvetleaf; Preemergence, 31 g ai/ha
  Velvetleaf plant response rating: 30
velvetleaf; [1]
  Plant response rating, Velvetleaf: 30
velvetleaf; [2]
  Plant response rating, Velvetleaf: 30
velvetleaf; Preemergence
  Plant response rating (scale of 0 to 100), Velvetleaf: 30
ryegrass, Italian; Preemergence, 31 g ai/ha
  Ryegrass, Italian plant response rating: 0
ryegrass, Italian; [1]
  Plant response rating, Ryegrass, Italian: 0
ryegrass, Italian; [2]
  Plant response rating, Ryegrass, Italian: 0
ryegrass, Italian; Preemergence
  Plant response rating (scale of 0 to 100), Ryegrass, Italian: 10
corn; [3]
  Corn plant response rating: 15
corn; [1]
  Plant response rating, Corn: 15
corn; [2]
  Plant response rating, Corn: 25
corn; Preemergence
  Plant response rating (scale of 0 to 100), Corn: 30
galium; scale 0 to 100, 0 is no effect and 100 is complete control
  Galium plant response rating: 0
galium; 62 g ai/ha, scale 0 to 100
  Plant response rating, Galium: 0
galium; [4]
  Plant response rating, Galium: 5
galium
  Plant response rating (scale of 0 to 100), Galium: 75
pigweed; [5]
  Plant response rating, Pigweed: 20
pigweed; [6]
  Plant response rating, Pigweed: 30
pigweed; 125 g ai/ha
  Pigweed plant response rating: 0
pigweed; [7]
  Plant response rating, Pigweed: 20
wheat; [5]
  Plant response rating, Wheat: 0
wheat; [6]
  Plant response rating, Wheat: 40
wheat; 125 g ai/ha
  Wheat plant response rating: 0
wheat; [7]
  Plant response rating, Wheat: 20
nutsedge, yellow; Preemergence, 31 g ai/ha
  Nutsedge, Yellow plant response rating: 0
nutsedge, yellow; [2]
  Plant response rating, Nutsedge, Yellow: 0
nutsedge, yellow; Preemergence
  Plant response rating (scale of 0 to 100), Nutsedge, Yellow: 10
blackgrass; [3]
  Blackgrass plant response rating: 0
blackgrass; [1]
  Plant response rating, Blackgrass: 5
blackgrass; [2]
  Plant response rating, Blackgrass: 30
blackgrass; Preemergence
  Plant response rating (scale of 0 to 100), Blackgrass: 35
morningglory; Preemergence, 31 g ai/ha
  Morningglory plant response rating: 20
morningglory; [2]
  Plant response rating, Morningglory: 25
morningglory; Preemergence
  Plant response rating (scale of 0 to 100), Morningglory: 25
